From article PMC5908160, “Inhibition of sperm motility in male macaques with EP055, a potential non-hormonal male contraceptive” (PLoS ONE, 2018)

Assay: Blood constituents and health monitoring in rhesus males after EP055 infusion
Assay type: in vivo, Macaca mulatta
Parameters: Hematocrit: unit not given here
Description: The physical and behavioral condition of animals are monitored daily at ONPRC. Additional monitoring by Division of Comparative Medicine and/or clinical veterinary staff was provided immediately, at 1 hr, 2 hr and 6 hr post-administration of the contraceptive compound, and daily for up to 30 days after the final drug injection. Criteria used to assess animal health and welfare include: stool and urine quality and quantity, appetite and attitude (bright and alert, quiet, lethargic), pain (not eating, not moving, hunched over, lethargy/disinterest), vomiting, diarrhea, nausea, dehydration (unkempt coat, lack of urine production), and signs of wounds of injury. In addition, the ONPRC Standardized Pain Scoring system is used post-surgically to monitor an animal’s progress and improvement over time. Major criteria include animal appearance, posture, activity (including stool and urine production), vocalization and atypical behaviors.
Prior to infusion of EP055, each male was sedated with ketamine by the surgical staff at ONPRC and transported to the operating room. After positioning in dorsal recumbency, the male was intubated and placed under inhalant (isoflurane) anesthesia. Bilateral intravenous catheters were placed in cephalic veins, one for infusion and one for back-up. A percutaneous arterial line was placed in the right femoral artery for direct blood pressure measurement. Invasive blood pressure, heart rate, SpO2, and respirations were monitored by the surgical staff throughout the procedure. Initially, the low doses of EP055 in 5% DMSO-PBS 7.6 was infused by i.v. at 75-80 mg/kg, using a Medfusion 3500 pump (Smiths Medical, St. Paul, MN), and was started at a low flow rate ([…]). In 3 of 4 males, a 5-10% increase in blood pressure and heart rate were noted within the first 2-3 minutes of infusion of EP055. In these cases, the infusion was temporarily suspended until these parameters subsequently declined to normal. The infusion rate was then doubled to 1.2 ml/kg/min after 5-10 minutes and the final volume of EP055 infusate was administered. Blood pressure and heart rate remained normal throughout the rest of the infusion interval. The total volume of EP055 infusate ranged from 72 ml – 136 ml, depending upon the weight of the animal, and the duration of infusion was 10-13 minutes. Following completion of the infusion, all animals recovered normally. Animals were monitored by clinical veterinary staff immediately, at 1 hr, 2 hr and 6-8 hr post-infusion, and daily for up to 30 days after the final infusion of EP055. […] Two weeks after the infusion of the low dose and collection of the next set of baseline semen samples, males were infused with the high dose of EP055 (125-130 mg/kg) as described above, and monitored similarly.
Blood was collected from the brachial vein at the time of each semen collection, and used to determine complete blood counts and serum biochemistry tests (including electrolytes, glucose, lipids, proteins, enzymes and metabolic by-products) as performed in the Clinical Pathology Laboratory in the Division of Comparative Medicine at ONPRC.

[1] = post high dose 125–130 mg/kg, 6-8 hrs
[2] = post high dose 125–130 mg/kg, 28-30 hrs
[3] = post high dose 125–130 mg/kg, 78 hr
[4] = post low dose 75–80 mg/kg, 6-8 hrs

COC(=O)NNc1nc(Nc2ccc(NC(C)=O)c(O)c2)nc(SCC(=O)O)n1 [EP055]
increase in blood pressure and heart rate (3 of 4 males, first 2-3 minutes of low dose infusion (75-80 mg/kg)): 5-10% | blood constituents versus baseline levels (after low or high dose): no clinically significant difference | side effects, monitoring of blood and organ function (during and after drug administration): no indications of any side effects or health warning signs | ALT (alanine aminotransferase) and glucose levels (during treatment): rose during treatment | adverse effects (high dose 125-130 mg/kg): no adverse effects were observed | neutrophil numbers versus reference range (2.4–9.6 x 10^3/mm^3) (high dose, 6 hrs): slightly above the high end of the reference range | long-term effects on animals (in vivo): no long- term effects | adverse effects (low dose 75-80 mg/kg, monitored up to 30 days): No adverse effects were observed | ALT [1]: 49.7 ± 3.6 U/l | AST [1]: 68.3 ± 6.8 U/l | Albumin [1]: 4.7 ± 0.1 g/dL | Alkaline Phosphatase [1]: 94.0 ± 4.8 U/l | BUN [1]: 18.8 ± 2.3 mg/dL | Basophils [1]: 0.5 ± 0.1% | CREAT [1]: 1.0 ± 0.1 mg/dL | Chloride [1]: 108.7 ± 0.3 mEq/l | Cholesterol [1]: 146.3 ± 18.1 mg/dL | Eosinophils [1]: 0.9 ± 0.1% | Erythrocytes [1]: 6.1 ± 0.2 x 10^6/mm^3 | GGT [1]: 71.0 ± 1.0 U/l | GLUC [1]: 101.3 ± 10.2 mg/dL | Hematocrit [1]: 45.2 ± 1.0 | Hemoglobin [1]: 14.7 ± 0.4 g/dL | Leukocytes [1]: 12.3 ± 1.8 x 10^3/mm^3 | Lymphocytes [1]: 21.6 ± 9.9% | MCH [1]: 24.2 ± 0.4 pg/cell | MCHC [1]: 32.5 ± 0.1 g/dL | MCV [1]: 74.5 ± 1.1 fl/cell | Magnesium [1]: 2.2 ± 0.1 mg/dL | Monocytes [1]: 5.2 ± 0.4% | Neutrophils [1]: 10.3 ± 1.4 x 10^3/mm^3 | Phosphorus [1]: 5.2 ± 0.4 mg/dL | Platelets [1]: 298.3 ± 39.0 x 10^6 | Potassium [1]: 4.0 ± 0.1 mEq/l | Sodium [1]: 147.7 ± 0.6 mEq/l | Total Bilirubin [1]: 0.2 ± 0.1 mg/dL | Total Protein [1]: 7.6 ± 0.2 g/dL | Triglycerides [1]: 84.3 ± 19.8 mg/dL | ALT [2]: 74.0 ± 10.8 U/l | AST [2]: 83.3 ± 14.3 U/l | Albumin [2]: 4.7 ± 0.1 g/dL | Alkaline Phosphatase [2]: 95.7 ± 3.6 U/l | BUN [2]: 15.3 ± 2.4 mg/dL | Basophils [2]: 0.5 ± 0.1% | CREAT [2]: 1.0 ± 0.0 mg/dL | Chloride [2]: 108.7 ± 0.6 mEq/l | Cholesterol [2]: 147.3 ± 23.4 mg/dL | Eosinophils [2]: 1.4 ± 0.1% | Erythrocytes [2]: 6.1 ± 0.2 x 10^6/mm^3 | GGT [2]: 71.3 ± 3.4 U/l | GLUC [2]: 92.0 ± 9.7 mg/dL | Hematocrit [2]: 45.9 ± 0.9 | Hemoglobin [2]: 15.0 ± 0.4 g/dL | Leukocytes [2]: 7.7 ± 1.4 x 10^3/mm^3 | Lymphocytes [2]: 32.4 ± 4.3% | MCH [2]: 24.4 ± 0.3 pg/cell | MCHC [2]: 32.7 ± 0.2 g/dL | MCV [2]: 74.8 ± 1.0 fl/cell | Magnesium [2]: 1.9 ± 0.0 mg/dL | Monocytes [2]: 5.5 ± 0.6% | Neutrophils [2]: 5.1 ±0.8 x 10^3/mm^3 | Phosphorus [2]: 3.2 ± 0.6 mg/dL | Platelets [2]: 301.7 ± 36.5 x 10^6 | Potassium [2]: 4.0 ± 0.1 mEq/l | Sodium [2]: 149.0 ± 0.0 mEq/l | Total Bilirubin [2]: 0.2 ± 0.1 mg/dL | Total Protein [2]: 7.8 ± 0.2 g/dL | Triglycerides [2]: 59.3 ± 18.5 mg/dL | ALT [3]: 53.0 ± 7.3 U/l | AST [3]: 30.0 ± 3.1 U/l | Albumin [3]: 4.8 ± 0.1 g/dL | Alkaline Phosphatase [3]: 101.5 ± 8.7 U/l | BUN [3]: 18.3 ± 2.2 mg/dL | Basophils [3]: 0.5 ± 2.3% | CREAT [3]: 1.0 ± 0.0 mg/dL | Chloride [3]: 108.5 ± 0.9 mEq/l | Cholesterol [3]: 152.0 ± 19.4 mg/dL | Eosinophils [3]: 1.4 ± 4.5% | Erythrocytes [3]: 5.8 ± 4.5 x 10^6/mm^3 | GGT [3]: 69.3 ± 3.8 U/l | GLUC [3]: 85.0 ± 8.7 mg/dL | Hematocrit [3]: 43.3 ± 4.5 | Hemoglobin [3]: 14.1 ± 2.3 g/dL | Leukocytes [3]: 9.7 ± 2.3 x 10^3/mm^3 | Lymphocytes [3]: 34.6 ± 4.5% | MCH [3]: 24.3 ± 4.5 pg/cell | MCV [3]: 74.9 ± 2.3 fl/cell | Magnesium [3]: 1.9 ± 0.1 mg/dL | Monocytes [3]: 5.6 ± 2.3% | Neutrophils [3]: 5.4 ± 1.1 x 10^3/mm^3 | Phosphorus [3]: 4.2 ± 0.8 mg/dL | Platelets [3]: 292.8 ± 48.1 x 10^6 | Potassium [3]: 4.4 ± 0.2 mEq/l | Sodium [3]: 149.5 ± 1.2 mEq/l | Total Bilirubin [3]: 0.1 ± 0.0 mg/dL | Total Protein [3]: 7.8 ± 0.1 g/dL | Triglycerides [3]: 68.0 ± 10.6 mg/dL | ALT [4]: 44.8 ± 2.0- U/l | AST [4]: 49.8 ± 3.1 U/l | Albumin [4]: 4.7 ± 0.0 g/dL | Alkaline Phosphatase [4]: 129.8 ± 19.2 U/l | BUN [4]: 17.2 ± 1.9 mg/dL | Basophils [4]: 0.6 ± 0.1% | CREAT [4]: 1.0 ± 0.0 mg/dL | Chloride [4]: 109.3 ± 1.5 mEq/l | Cholesterol [4]: 154.5 ± 19.0 mg/dL | Eosinophils [4]: 1.2 ± 0.3% | Erythrocytes [4]: 5.9 ± 0.2 x 10^6/mm^3
